Assay results reported in ChEMBL document CHEMBL5390239, “A Novel 7H-[1,2,4]Triazolo[3,4-b]thiadiazine-based Cystic Fibrosis Transmembrane Conductance Regulator Potentiator Directed toward Treatment of Cystic Fibrosis” (ACS Med Chem Lett, 2023).
Active and inactive are the calls of the source. No cut-off for these calls is given here.

Molecular target: Cystic fibrosis transmembrane conductance regulator (Homo sapiens, UniProt P13569, G551D)
Assay: Potentiation of CFTR G551D mutant (unknown origin) expressed in FRT cells assessed as increase in chloride current in presence of VX-770 by voltage clamp electrophysiology recording
Type: cell-based
Settings: not given

Chain of Cystic fibrosis transmembrane conductance regulator (P13569 whole entry G551D): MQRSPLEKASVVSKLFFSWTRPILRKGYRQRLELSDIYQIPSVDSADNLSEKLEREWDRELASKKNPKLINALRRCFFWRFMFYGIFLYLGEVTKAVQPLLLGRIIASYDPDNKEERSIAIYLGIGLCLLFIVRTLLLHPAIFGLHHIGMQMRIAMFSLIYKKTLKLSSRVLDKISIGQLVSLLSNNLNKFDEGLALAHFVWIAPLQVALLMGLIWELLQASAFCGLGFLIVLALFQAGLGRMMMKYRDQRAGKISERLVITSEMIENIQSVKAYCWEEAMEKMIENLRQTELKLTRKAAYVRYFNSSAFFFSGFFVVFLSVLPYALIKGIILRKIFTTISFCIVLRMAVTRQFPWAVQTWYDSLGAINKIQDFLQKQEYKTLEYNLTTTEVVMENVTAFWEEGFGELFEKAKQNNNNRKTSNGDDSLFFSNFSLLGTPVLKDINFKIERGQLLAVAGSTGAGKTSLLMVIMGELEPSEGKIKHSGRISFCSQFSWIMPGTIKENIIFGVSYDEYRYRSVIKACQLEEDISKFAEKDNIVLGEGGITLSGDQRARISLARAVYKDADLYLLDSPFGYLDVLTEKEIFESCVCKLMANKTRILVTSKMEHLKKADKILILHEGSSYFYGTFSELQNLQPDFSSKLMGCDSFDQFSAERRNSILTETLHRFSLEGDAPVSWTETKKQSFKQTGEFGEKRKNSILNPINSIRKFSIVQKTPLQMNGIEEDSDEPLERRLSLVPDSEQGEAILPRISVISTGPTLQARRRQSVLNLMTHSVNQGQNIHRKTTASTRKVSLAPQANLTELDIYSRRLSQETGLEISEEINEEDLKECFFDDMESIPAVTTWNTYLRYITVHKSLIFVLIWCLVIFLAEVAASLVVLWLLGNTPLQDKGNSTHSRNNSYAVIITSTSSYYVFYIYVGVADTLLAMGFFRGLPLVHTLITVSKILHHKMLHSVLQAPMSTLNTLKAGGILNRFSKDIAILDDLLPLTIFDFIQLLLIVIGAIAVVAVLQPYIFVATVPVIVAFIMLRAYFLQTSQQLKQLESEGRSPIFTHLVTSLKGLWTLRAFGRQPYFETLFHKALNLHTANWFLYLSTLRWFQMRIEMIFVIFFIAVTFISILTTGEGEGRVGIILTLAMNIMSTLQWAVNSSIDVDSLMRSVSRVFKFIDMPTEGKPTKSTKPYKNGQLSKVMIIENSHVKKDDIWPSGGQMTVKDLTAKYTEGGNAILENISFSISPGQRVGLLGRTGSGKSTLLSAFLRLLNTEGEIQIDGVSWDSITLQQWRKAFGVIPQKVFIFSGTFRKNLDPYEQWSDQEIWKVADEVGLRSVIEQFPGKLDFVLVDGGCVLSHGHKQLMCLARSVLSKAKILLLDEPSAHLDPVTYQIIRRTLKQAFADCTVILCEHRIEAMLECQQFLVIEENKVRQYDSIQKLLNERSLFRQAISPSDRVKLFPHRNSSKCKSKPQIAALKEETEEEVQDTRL

In the case of `CCc1nnc2n1N=C(c1ccc(OC)c(OC)c1)CS2`, the EC50 is reported as roughly 940 nM.

System: Cystic fibrosis transmembrane conductance regulator (Homo sapiens), P13569 [N1303K]
Assay: Corrector activity at HRP tagged CFTR N1303K mutant (unknown origin) expressed in FRT cells assessed as stabilization of CFTR mutant in plasma membrane by measuring enhanced HRP signal at 5 uM incubated for 24 hrs by ELISA
Settings: filed as activator

Chain of Cystic fibrosis transmembrane conductance regulator (Homo sapiens), P13569 [N1303K] (P13569 whole entry N1303K): as the sequence (P13569 whole entry G551D) above, with D551G, N1303K counted along it

`CCc1nnc2n1N=C(c1ccc(OC)c(OC)c1)CS2` was tested, and the Activity was “Active”.

System: Cystic fibrosis transmembrane conductance regulator (Homo sapiens), P13569 [G551D]
Assay: Potentiation of CFTR G551D mutant (unknown origin) expressed in FRT cells assessed as increase in chloride current at 10 uM in presence of VX-770 by voltage clamp electrophysiology recording relative to VX-770 alone
Type: cell-based
Settings: filed as activator

Chain of Cystic fibrosis transmembrane conductance regulator (Homo sapiens), P13569 [G551D] (P13569 whole entry G551D): as the sequence (P13569 whole entry G551D) above

Point of comparison: `CC1=Nn2c(nnc2-c2cc(Cl)ccc2Br)SC1`, Activity 155%. Against it:
- COc1ccc(C2=Nn3c(nnc3-c3ccc(Cl)cc3Cl)SC2)cc1 — lower, 142%
- CCC1=Nn2c(nnc2-c2cc(OC)c(OC)c(OC)c2)SC1 — lower, 119%
- CCC1=Nn2c(nnc2-c2ccc(Cl)cc2)SC1 — lower, 149%
- FC(F)(F)C1=Nn2c(nnc2-c2cc(Cl)ccc2Br)SC1 — higher, 171%
- CCc1nnc2n1N=C(c1ccc(Cl)c(Cl)c1)CS2 — lower, 103%
- FC(F)(F)C1=Nn2c(nnc2-c2ccc(Cl)cc2Cl)SC1 — higher, 159%
- CC(C)(C)C1=Nn2c(nnc2-c2cc(Cl)ccc2Br)SC1 — higher, 267%
- CC(C)C1=Nn2c(nnc2-c2cc(Cl)ccc2Cl)SC1 — higher, 196%
- CCC1=Nn2c(nnc2-c2cc(Cl)ccc2Br)SC1 — lower, 118%
- CCC1=Nn2c(nnc2-c2ccc(Cl)c(Cl)c2)SC1 — higher, 187%
- COc1ccc(F)c(-c2nnc3n2N=C(C(C)C)CS3)c1 — higher, 237%
- CC(C)C1=Nn2c(nnc2-c2cc(Cl)ccc2Br)SC1 — higher, 267%
- COc1ccc(OC)c(-c2nnc3n2N=C(C(C)C)CS3)c1 — higher, 166%
- CCc1nnc2n1N=C(c1ccc(OC)c(OC)c1)CS2 — higher, 204%
- CCC1=Nn2c(nnc2-c2cccc(Cl)c2)SC1 — higher, 162%
- COc1ccc(Br)c(-c2nnc3n2N=C(C(C)C)CS3)c1 — higher, 232%
- CC(C)C1=Nn2c(nnc2-c2ccc(Cl)cc2Cl)SC1 — higher, 204%
- CC(C)(C)C1=Nn2c(nnc2-c2ccc(Cl)cc2Cl)SC1 — higher, 379%
- CCC1=Nn2c(nnc2-c2cccc(Cl)c2Cl)SC1 — lower, 129%
- CCC1=Nn2c(nnc2-c2ccc(OC)c(OC)c2)SC1 — lower, 107%
- COc1cc(Br)c(-c2nnc3n2N=C(C(C)C)CS3)cc1OC — lower, 106%
- CC1=Nn2c(nnc2-c2ccc(Cl)cc2Cl)SC1 — lower, 137%
- CCC1=Nn2c(nnc2-c2ccc(Cl)cc2Cl)SC1 — higher, 257%
